# Reference: patent US9556139B2, “6-substituted phenoxychroman carboxylic acid derivatives” (Array BioPharma Inc., priority 2008, dated 2017)
# Biological target: human DP2 (Homo sapiens (Human), UniProt Q9Y5Y4)
# Assay: DP-2 Binding Inhibition Assay (3H-PGD2 binding to membranes of K562 cells expressing DP2)
# Details: read-out: EC50 (nM) 4% HSA; inhibition of 3H-PGD2 binding, 4% HSA
# Summary of the method: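 Radioligand filtration binding: ³H-PGD2 displacement from DP2-expressing K562 cell membranes, 60 min, room temperature, pH 7.4, under 0.1% BSA, 1% HSA or 4% HSA.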
# Chain of human DP2 (Q9Y5Y4 whole entry): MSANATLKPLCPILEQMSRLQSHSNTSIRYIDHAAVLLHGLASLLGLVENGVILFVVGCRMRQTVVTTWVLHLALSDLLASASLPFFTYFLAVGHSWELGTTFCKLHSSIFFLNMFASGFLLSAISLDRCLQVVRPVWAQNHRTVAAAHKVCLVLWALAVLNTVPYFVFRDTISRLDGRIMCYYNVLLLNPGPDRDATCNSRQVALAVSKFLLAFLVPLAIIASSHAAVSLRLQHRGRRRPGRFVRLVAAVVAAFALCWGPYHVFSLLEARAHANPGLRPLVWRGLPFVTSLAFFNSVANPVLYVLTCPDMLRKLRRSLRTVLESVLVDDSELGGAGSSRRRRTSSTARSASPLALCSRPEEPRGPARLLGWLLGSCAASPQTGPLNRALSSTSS
row,Structure (SMILES),EC50
1,"O=C(NCCc1ccc2ccccc2c1)c1ccc(Oc2cc3c(cc2Cl)C(C(=O)O)CCO3)cc1 (stereo not drawn) [Example 87, Sodium 6-chloro-7-(4-(2-(naphthalen-2-yl)ethylcarbamoyl)phenoxy)chroman-4-carboxylate]",234 nM
2,"O=C(NCCc1ccccc1-c1ccccc1)c1ccc(Oc2cc3c(cc2Cl)C(C(=O)O)CCO3)cc1 (stereo not drawn) [Example 92, Sodium 7-(4-(2-(biphenyl-2-yl)ethylcarbamoyl)phenoxy)-6-chlorochroman-4-carboxylate]",111 nM
3,"O=C(NCCc1ccccc1C1CC1)c1ccc(Oc2cc3c(cc2Cl)C(C(=O)O)CCO3)cc1 (stereo not drawn) [Example 93, Sodium 6-chloro-7-(4-(2-cyclopropylphenethylcarbamoyl)phenoxy)chroman-4-carboxylate]",107 nM
4,"O=C(NCCc1ccccc1-c1ccc(Cl)cc1)c1ccc(Oc2cc3c(cc2Cl)C(C(=O)O)CCO3)cc1 (stereo not drawn) [Example 94, Sodium 6-chloro-7-(4-(2-(4′-chlorobiphenyl-2-yl)ethylcarbamoyl)phenoxy)chroman-4-carboxylate]",287 nM
5,"O=C(NCCc1ccccc1-c1cccc(Cl)c1)c1ccc(Oc2cc3c(cc2Cl)C(C(=O)O)CCO3)cc1 (stereo not drawn) [Example 95, Sodium 6-chloro-7-(4-(2-(3′-chlorobiphenyl-2-yl)ethylcarbamoyl)phenoxy)chroman-4-carboxylate]",91.8 nM
6,"O=C(NCCc1ccccc1-c1ccccc1Cl)c1ccc(Oc2cc3c(cc2Cl)C(C(=O)O)CCO3)cc1 (stereo not drawn) [Example 96, Sodium 6-chloro-7-(4-(2-(2′-chlorobiphenyl-2-yl)ethylcarbamoyl)phenoxy)chroman-4-carboxylate]",40.2 nM
7,"Cc1ccc(-c2cccc(NC(=O)c3ccc(Oc4cc5c(cc4C#N)C(C(=O)O)CCO5)cc3)c2)cc1 (stereo not drawn) [Example 107, 6-Cyano-7-(4-(4′-methylbiphenyl-3-ylcarbamoyl)phenoxy)chroman-4-carboxylic acid]",115 nM
8,"Cc1cccc(-c2cccc(NC(=O)c3ccc(Oc4cc5c(cc4C#N)C(C(=O)O)CCO5)cc3)c2)c1 (stereo not drawn) [Example 108, 6-Cyano-7-(4-(3′-methylbiphenyl-3-ylcarbamoyl)phenoxy)chroman-4-carboxylic acid]",69.3 nM
9,"Cc1cccc(-c2cccc(NC(=O)c3ccc(Oc4cc5c(cc4C#N)C(C(=O)O)CCO5)cc3)c2)c1C (stereo not drawn) [Example 109, 6-Cyano-7-(4-(2′,3′-dimethylbiphenyl-3-ylcarbamoyl)phenoxy)chroman-4-carboxylic acid]",104 nM
10,"O=C(NCC1Cc2ccccc2C1)c1ccc(Oc2cc3c(cc2Cl)C(C(=O)O)CCO3)cc1 (stereo not drawn) [Example 111, Sodium 6-chloro-7-(4-((2,3-dihydro-1H-inden-2-yl)methylcarbamoyl)phenoxy)chroman-4-carboxylate]",174 nM
11,"Cc1ccc(SCCNC(=O)c2ccc(Oc3cc4c(cc3Cl)C(C(=O)O)CCO4)cc2)cc1 (stereo not drawn) [Example 112, Sodium 6-chloro-7-(4-(2-(p-tolylthio)ethylcarbamoyl)phenoxy)chroman-4-carboxylate]",4190 nM
12,"O=C(NCCSc1ccc(Cl)cc1)c1ccc(Oc2cc3c(cc2Cl)C(C(=O)O)CCO3)cc1 (stereo not drawn) [Example 113, Sodium 6-chloro-7-(4-(2-(4-chlorophenylthio)ethylcarbamoyl)phenoxy)chroman-4-carboxylate]",2380 nM
13,"O=C(NCCOc1ccccc1Cl)c1ccc(Oc2cc3c(cc2Cl)C(C(=O)O)CCO3)cc1 (stereo not drawn) [Example 115, Sodium 6-chloro-7-(4-(2-(2-chlorophenoxyl)ethylcarbamoyl)phenoxy)chroman-4-carboxylate]",2440 nM
14,"CC(C)(C)Oc1ccccc1CCNC(=O)c1ccc(Oc2cc3c(cc2Cl)C(C(=O)O)CCO3)cc1 (stereo not drawn) [Example 116, Sodium 7-(4-(2-tert-butoxyphenethylcarbamoyl)phenoxy)-6-chlorochroman-4-carboxylate]",304 nM
15,"O=C(NC1CCN(c2cccc(Cl)c2)C1)c1ccc(Oc2cc3c(cc2Cl)C(C(=O)O)CCO3)cc1 (stereo not drawn) [Example 119, Sodium 6-chloro-7-(4-(1-(3-chlorophenyl)pyrrolidin-3-ylcarbamoyl)phenoxy)chroman-4-carboxylate]",206 nM
16,"O=C(NC1CCN(c2cccc(Cl)c2)CC1)c1ccc(Oc2cc3c(cc2Cl)C(C(=O)O)CCO3)cc1 (stereo not drawn) [Example 120, Sodium 6-chloro-7-(4-(1-(3-chlorophenyl)piperidin-4-ylcarbamoyl)phenoxy)chroman-4-carboxylate]",371 nM
17,"O=C(NC1CN(c2cccc(C(F)(F)F)c2)C1)c1ccc(Oc2cc3c(cc2Cl)C(C(=O)O)CCO3)cc1 (stereo not drawn) [Example 121, Sodium 6-chloro-7-(4-(1-(3-(trifluoromethyl)phenyl)azetidin-3-ylcarbamoyl)phenoxy)chroman-4-carboxylate]",4320 nM
18,"O=C(NC1CCN(c2cccc(C(F)(F)F)c2)C1)c1ccc(Oc2cc3c(cc2Cl)C(C(=O)O)CCO3)cc1 (stereo not drawn) [Example 122, Sodium 6-chloro-7-(4-(1-(3-(trifluoromethyl)phenyl)pyrrolidin-3-ylcarbamoyl)phenoxy)chroman-4-carboxylate]",242 nM
19,"O=C(NC1CCN(c2cccc(C(F)(F)F)c2)CC1)c1ccc(Oc2cc3c(cc2Cl)C(C(=O)O)CCO3)cc1 (stereo not drawn) [Example 123, Sodium 6-chloro-7-(4-(1-(3-(trifluoromethyl)phenyl)piperidin-4-ylcarbamoyl)phenoxy)chroman-4-carboxylate]",259 nM
20,"O=C(NC1CCN(c2ccc(Cl)cc2Cl)CC1)c1ccc(Oc2cc3c(cc2Cl)C(C(=O)O)CCO3)cc1 (stereo not drawn) [Example 124, Sodium 6-chloro-7-(4-(1-(2,4-dichlorophenyl)piperidin-4-ylcarbamoyl)phenoxy)chroman-4-carboxylate]",841 nM
21,"O=C(N[C@H]1CCCN(c2cccc(Cl)c2)C1)c1ccc(Oc2cc3c(cc2Cl)C(C(=O)O)CCO3)cc1 (stereo partly drawn) [Example 125, Sodium 6-chloro-7-(4-((S)-1-(3-chlorophenyl)piperidin-3-ylcarbamoyl)phenoxy)chroman-4-carboxylate]",421 nM
22,"N#Cc1cc2c(cc1Oc1ccc(C(=O)NCC3Cc4ccccc4C3)cc1)OCCC2C(=O)O (stereo not drawn) [Example 126, 6-Cyano-7-(4-((2,3-dihydro-1H-inden-2-yl)methylcarbamoyl)phenoxy)chroman-4-carboxylic acid]",179 nM
23,"CC(C)(C)C1CCC(NC(=O)c2ccc(Oc3cc4c(cc3C#N)C(C(=O)O)CCO4)cc2)CC1 (stereo not drawn) [Example 127, 7-(4-(4-tert-Butylcyclohexylcarbamoyl)phenoxy)-6-cyanochroman-4-carboxylic acid]",270 nM

# Other lines, results leading:
row,EC50,Structure (SMILES)
1,203 nM,"COc1ccc(OC)c(CCNC(=O)c2ccc(Oc3cc4c(cc3Cl)C(C(=O)O)CCO4)cc2)c1 (stereo not drawn) [Example 88, Sodium 6-chloro-7-(4-(2,5-dimethoxyphenethylcarbamoyl)phenoxy)chroman-4-carboxylate]"
2,146 nM,"COc1cccc(CCNC(=O)c2ccc(Oc3cc4c(cc3Cl)C(C(=O)O)CCO4)cc2)c1OC (stereo not drawn) [Example 89, Sodium 6-chloro-7-(4-(2,3-dimethoxyphenethylcarbamoyl)phenoxy)chroman-4-carboxylate]"
3,153 nM,"COc1ccc(Br)cc1CCNC(=O)c1ccc(Oc2cc3c(cc2Cl)C(C(=O)O)CCO3)cc1 (stereo not drawn) [Example 90, Sodium 7-(4-(5-bromo-2-methoxyphenethylcarbamoyl)phenoxy)-6-chlorochroman-4-carboxylate]"
4,192 nM,"O=C(NCCc1ccccc1Br)c1ccc(Oc2cc3c(cc2Cl)C(C(=O)O)CCO3)cc1 (stereo not drawn) [Example 91, Sodium 7-(4-(2-bromophenethylcarbamoyl)phenoxy)-6-chlorochroman-4-carboxylate]"
5,190 nM,"O=C(NCCc1ccc(F)cc1Cl)c1ccc(Oc2cc3c(cc2Cl)C(C(=O)O)CCO3)cc1 (stereo not drawn) [Example 97, Sodium 6-chloro-7-(4-(2-chloro-4-fluorophenethylcarbamoyl)phenoxy)chroman-4-carboxylate]"
6,193 nM,"O=C(NCCc1ccc(C(F)(F)F)cc1Cl)c1ccc(Oc2cc3c(cc2Cl)C(C(=O)O)CCO3)cc1 (stereo not drawn) [Example 98, Sodium 6-chloro-7-(4-(2-chloro-4-(trifluoromethyl)phenethylcarbamoyl)phenoxy)chroman-4-carboxylate]"
7,619 nM,"COc1ccc(CCNC(=O)c2ccc(Oc3cc4c(cc3Cl)C(C(=O)O)CCO4)cc2)c(Cl)c1 (stereo not drawn) [Example 100, Sodium 6-chloro-7-(4-(2-chloro-4-methoxyphenethylcarbamoyl)phenoxy)chroman-4-carboxylate]"
8,292 nM,"COc1cc(F)ccc1CCNC(=O)c1ccc(Oc2cc3c(cc2Cl)C(C(=O)O)CCO3)cc1 (stereo not drawn) [Example 101, Sodium 6-chloro-7-(4-(4-fluoro-2-methoxyphenethylcarbamoyl)phenoxy)chroman-4-carboxylate]"
9,392 nM,"O=C(NCCc1cc(Cl)ccc1Cl)c1ccc(Oc2cc3c(cc2Cl)C(C(=O)O)CCO3)cc1 (stereo not drawn) [Example 103, Sodium 6-chloro-7-(4-(2,5-dichlorophenethylcarbamoyl)phenoxy)chroman-4-carboxylate]"
10,607 nM,"O=C(NCCc1ccc2c(c1)OCO2)c1ccc(Oc2cc3c(cc2Cl)C(C(=O)O)CCO3)cc1 (stereo not drawn) [Example 110, Sodium 7-(4-(2-(benzo[d][1,3]dioxol-5-yl)ethylcarbamoyl)phenoxy)-6-chlorochroman-4-carboxylate]"
11,91 nM,"CCOc1ccccc1CCNC(=O)c1ccc(Oc2cc3c(cc2Cl)C(C(=O)O)CCO3)cc1 (stereo not drawn) [Example 114, Sodium 6-chloro-7-(4-(2-ethoxyphenethylcarbamoyl)phenoxy)chroman-4-carboxylate]"
12,246 nM,"CSc1ccccc1CCNC(=O)c1ccc(Oc2cc3c(cc2Cl)C(C(=O)O)CCO3)cc1 (stereo not drawn) [Example 117, Sodium 6-chloro-7-(4-(2-(methylthio)phenethylcarbamoyl)phenoxy)chroman-4-carboxylate]"
13,426 nM,"CSc1ccc(CCNC(=O)c2ccc(Oc3cc4c(cc3Cl)C(C(=O)O)CCO4)cc2)cc1 (stereo not drawn) [Example 118, Sodium 6-chloro-7-(4-(4-(methylthio)phenethylcarbamoyl)phenoxy)chroman-4-carboxylate]"
